According to the NIST ThermoML archive (doi:10.1016/j.jct.2019.06.005):

Test: xn = mol fraction of the nth substance listed
Details: for surface tension liquid-gas: Maximal bubble pressure; for mass density: 100 kPa, Liquid, Vibrating tube method

COCC[n+]1ccn(C)c1.O=S(=O)([N-]S(=O)(=O)C(F)(F)F)C(F)(F)F + CCO
Details	mass density [kg/m3]	surface tension liquid-gas [mN/m]
288.15 K, x1 = 0.1003	1055.22	24.8
288.15 K, x1 = 0.2	1197.64	25.9
288.15 K, x1 = 0.2972	1285.52	27.5
288.15 K, x1 = 0.401	1350.45	29.3
288.15 K, x1 = 0.5028	1396.83	31.5
288.15 K, x1 = 0.5982	1430.26	33.8
288.15 K, x1 = 0.6973	1457.78	35.8
288.15 K, x1 = 0.8111	1483.2	38.2
288.15 K, x1 = 0.8991	1499.41	39.7
288.15 K, x1 = 1	1515.3	41.4
293.15 K, x1 = 0.1003	1050.42	24.4
293.15 K, x1 = 0.2	1192.63	25.5
293.15 K, x1 = 0.2972	1280.42	27.1
293.15 K, x1 = 0.401	1345.31	29
293.15 K, x1 = 0.5028	1391.67	31.3
293.15 K, x1 = 0.5982	1425.1	33.5
293.15 K, x1 = 0.6973	1452.62	35.5
293.15 K, x1 = 0.8111	1478.06	38
293.15 K, x1 = 0.8991	1494.28	39.5
293.15 K, x1 = 1	1510.15	41.2
298.15 K, x1 = 0.1003	1045.8	23.9
298.15 K, x1 = 0.2	1187.81	25
298.15 K, x1 = 0.2972	1275.51	26.8
298.15 K, x1 = 0.401	1340.28	28.7
298.15 K, x1 = 0.5028	1386.61	31
298.15 K, x1 = 0.5982	1420.05	33.2
298.15 K, x1 = 0.6973	1447.54	35.3
298.15 K, x1 = 0.8111	1472.95	37.7
298.15 K, x1 = 0.8991	1489.16	39.2
298.15 K, x1 = 1	1505.03	41
303.15 K, x1 = 0.1003	1040.76	23.5
303.15 K, x1 = 0.2	1182.58	24.7
303.15 K, x1 = 0.2972	1270.2	26.5
303.15 K, x1 = 0.401	1335.02	28.4
303.15 K, x1 = 0.5028	1381.37	30.7
303.15 K, x1 = 0.5982	1414.81	33
303.15 K, x1 = 0.6973	1442.35	35
303.15 K, x1 = 0.8111	1467.8	37.5
303.15 K, x1 = 0.8991	1484.03	39
303.15 K, x1 = 1	1499.92	40.7
308.15 K, x1 = 0.1003	1035.9	23.1
308.15 K, x1 = 0.2	1177.54	24.4
308.15 K, x1 = 0.2972	1265.09	26.2
308.15 K, x1 = 0.401	1329.88	28.1
308.15 K, x1 = 0.5028	1376.24	30.4
308.15 K, x1 = 0.5982	1409.68	32.7
308.15 K, x1 = 0.6973	1437.23	34.8
308.15 K, x1 = 0.8111	1462.7	37.2
308.15 K, x1 = 0.8991	1478.94	38.8
308.15 K, x1 = 1	1494.83	40.5
313.15 K, x1 = 0.1003	1031.02	22.6
313.15 K, x1 = 0.2	1172.49	24
313.15 K, x1 = 0.2972	1259.99	25.8
313.15 K, x1 = 0.401	1324.76	27.8
313.15 K, x1 = 0.5028	1371.12	30.1
313.15 K, x1 = 0.5982	1404.57	32.5
313.15 K, x1 = 0.6973	1432.14	34.5
313.15 K, x1 = 0.8111	1457.62	37
313.15 K, x1 = 0.8991	1473.87	38.6
313.15 K, x1 = 1	1489.77	40.3
318.15 K, x1 = 0.1003	1026.12	22.3
318.15 K, x1 = 0.2	1167.43	23.7
318.15 K, x1 = 0.2972	1254.88	25.5
318.15 K, x1 = 0.401	1319.64	27.5
318.15 K, x1 = 0.5028	1366.01	29.9
318.15 K, x1 = 0.5982	1399.48	32.2
318.15 K, x1 = 0.6973	1427.07	34.3
318.15 K, x1 = 0.8111	1452.56	36.8
318.15 K, x1 = 0.8991	1468.81	38.3
318.15 K, x1 = 1	1484.72	40.1
